Here are results for 15 compounds from PubChem BioAssay (NCI).

SMILES strings stand for the structures.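 Results reflect a 48-hour exposure of cells in 96-well plates to compound at five concentrations. The concentration for 50% growth inhibition is given as GI50. At the TGI there is no net growth.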

Test systems include DMS 273 small cell lung; HCC-2998 colon; KM20L2 colon; M14 melanoma; MOLT-4 leukemia; NCI-H522 lung; OVCAR-8 ovarian; SW-620 colon.
Assay in all cases: NCI-60 cell line screen, 48 h

As to `CC(C)(C)CC(C)(C)c1cc2c(O)c(c1)Cc1cc(C(C)(C)CC(C)(C)C)cc(c1O)Cc1cc(C(C)(C)CC(C)(C)C)cc(c1O)Cc1cc(C(C)(C)CC(C)(C)C)cc(c1O)Cc1cc(C(C)(C)CC(C)(C)C)cc(c1O)Cc1cc(C(C)(C)CC(C)(C)C)cc(c1O)Cc1cc(C(C)(C)CC(C)(C)C)cc(c1O)Cc1cc(C(C)(C)CC(C)(C)C)cc(c1O)C2`, the TGI in the experiment on DMS 273 small cell lung, in the experiment with HCC-2998 colon, in the experiment with KM20L2 colon, with M14 melanoma, in the experiment on MOLT-4 leukemia and in the experiment on NCI-H522 lung was above 100 µM each time. In addition, the TGI with OVCAR-8 ovarian and in the experiment with SW-620 colon was above 100 µM throughout.

For `CCCCCCCCCCCc1cc(=O)c2c(O)cccc2o1`, the TGI in the experiment with DMS 273 small cell lung, with HCC-2998 colon, with M14 melanoma, in the experiment on MOLT-4 leukemia, in the experiment with NCI-H522 lung and in the experiment with OVCAR-8 ovarian was above 100 µM in each case. Besides, the TGI in the experiment on SW-620 colon is above 100 µM.

As for `CC1=CC[C@@H]2C(=O)C=CC=C[C@H]12.[C-]#[O+].[C-]#[O+].[C-]#[O+].[Fe]`, the GI50 with HCC-2998 colon was above 100 µM; with KM20L2 colon, above 100 µM; with M14 melanoma, above 100 µM; with MOLT-4 leukemia, above 100 µM; in the experiment with NCI-H522 lung, 9.81 µM; in the experiment with OVCAR-8 ovarian, above 100 µM. In addition, the TGI with HCC-2998 colon, in the experiment on KM20L2 colon, in the experiment with M14 melanoma, with MOLT-4 leukemia, in the experiment with NCI-H522 lung and with OVCAR-8 ovarian was above 100 µM throughout.

Consider `COc1cc2ccnc(-c3n[nH]c4cc(OC)c(OC)cc34)c2cc1OC`, for which the TGI was above 100 µM with DMS 273 small cell lung; above 100 µM in the experiment with HCC-2998 colon; above 100 µM with KM20L2 colon; above 100 µM in the experiment on M14 melanoma; above 100 µM with MOLT-4 leukemia; 69.7 µM in the experiment on NCI-H522 lung. For the same compound, the TGI in the experiment with OVCAR-8 ovarian and with SW-620 colon was above 100 µM in each case.

In the case of `O=C(/C=C/c1ccco1)N1CCN(Cc2ccccc2)CC1`, the TGI in the experiment on DMS 273 small cell lung, in the experiment on HCC-2998 colon, in the experiment with KM20L2 colon, with M14 melanoma, in the experiment with MOLT-4 leukemia and in the experiment with NCI-H522 lung was above 100 µM throughout. Also, the TGI in the experiment on OVCAR-8 ovarian and in the experiment with SW-620 colon was above 100 µM in each case.

For the compound `COC(=O)c1ccc(N/C=C(/C#N)c2ccsc2)cc1`, the TGI was 37.4 µM in the experiment with DMS 273 small cell lung; 44.5 µM in the experiment with HCC-2998 colon; 28.1 µM in the experiment with KM20L2 colon; above 100 µM in the experiment with MOLT-4 leukemia; 19.5 µM with OVCAR-8 ovarian; 54.7 µM with SW-620 colon.

On to `COc1ccccc1NC(=O)C1=C(C)NC(C)=C(C(=O)Nc2ccccc2OC)C1c1ccc(C2C(C(=O)Nc3ccccc3OC)=C(C)NC(C)=C2C(=O)Nc2ccccc2OC)cc1`, for which the TGI with DMS 273 small cell lung was determined as 8.67 µM; in the experiment on HCC-2998 colon, 3.56 µM; in the experiment with KM20L2 colon, 3.39 µM; in the experiment on M14 melanoma it was 3.34 µM; with MOLT-4 leukemia, 17.8 µM; with NCI-H522 lung, 3.52 µM. Besides, the TGI with OVCAR-8 ovarian was found to be 7.52 µM; with SW-620 colon, 4.06 µM.

Take `CN(C)C(=S)/N=C(\N)N(C)C`: the TGI in the experiment on DMS 273 small cell lung, in the experiment on HCC-2998 colon, in the experiment with KM20L2 colon, in the experiment with M14 melanoma, with MOLT-4 leukemia and in the experiment with NCI-H522 lung was above 100 µM throughout. In addition, the TGI with OVCAR-8 ovarian and with SW-620 colon was above 100 µM each time.

As for `CCOc1ccc2c(c1)[n+]([O-])c(-c1ccc([N+](=O)[O-])cc1)c(N)[n+]2[O-]`, the TGI in the experiment with DMS 273 small cell lung, in the experiment on KM20L2 colon, in the experiment with M14 melanoma, in the experiment on MOLT-4 leukemia, with NCI-H522 lung and in the experiment with OVCAR-8 ovarian was above 100 µM throughout. Besides, in the experiment with SW-620 colon, the TGI was above 100 µM.

Consider `OCC(O)C(OC1OC(CO)C(O)C(O)C1O)c1nn(-c2ccc(Cl)cc2)c2nc3cc(Cl)c(Cl)cc3nc12` (stereo not given), for which the TGI in the experiment with HCC-2998 colon, with KM20L2 colon, in the experiment with M14 melanoma, with MOLT-4 leukemia, in the experiment on NCI-H522 lung and with OVCAR-8 ovarian was above 100 µM each time.

In the case of `O=C(CC(=O)c1cccc2ccccc12)C(=O)Nc1nccs1`, the TGI in the experiment on DMS 273 small cell lung, in the experiment with HCC-2998 colon, in the experiment on KM20L2 colon, in the experiment on M14 melanoma, in the experiment on MOLT-4 leukemia and in the experiment with NCI-H522 lung was above 100 µM in each case. Further, the TGI in the experiment on OVCAR-8 ovarian and with SW-620 colon was above 100 µM throughout.

For `COC(=O)CCC(=O)Nc1cc(C)ccc1C`, the TGI in the experiment with DMS 273 small cell lung, with HCC-2998 colon, in the experiment with M14 melanoma, in the experiment on MOLT-4 leukemia, in the experiment with NCI-H522 lung and in the experiment on OVCAR-8 ovarian was above 100 µM throughout. The compound also yielded a TGI in the experiment on SW-620 colon above 100 µM.

Consider `NC(=S)N/N=C1/C(=O)N(c2ccccc2)C(=O)C1C(=O)Nc1ccccc1` (stereo not given), for which the TGI in the experiment on DMS 273 small cell lung, in the experiment on HCC-2998 colon, in the experiment with KM20L2 colon, in the experiment with M14 melanoma, with MOLT-4 leukemia and in the experiment on NCI-H522 lung was above 100 µM each time. Further, the TGI in the experiment with OVCAR-8 ovarian and with SW-620 colon was above 100 µM each time.

With `C=CC(=O)OCCCS(=O)(=O)[O-].C=CC(=O)OCCCS(=O)(=O)[O-].NC1CCCCC1N.[Pt+4]`, the GI50 with DMS 273 small cell lung, in the experiment with HCC-2998 colon, in the experiment with KM20L2 colon, in the experiment with M14 melanoma, in the experiment with MOLT-4 leukemia and in the experiment with NCI-H522 lung was above 25 µM throughout. Moreover, the GI50 in the experiment with OVCAR-8 ovarian and in the experiment with SW-620 colon was above 25 µM each time. Also, the TGI in the experiment with DMS 273 small cell lung, in the experiment on HCC-2998 colon, in the experiment with KM20L2 colon, in the experiment on M14 melanoma, in the experiment on MOLT-4 leukemia and in the experiment with NCI-H522 lung was above 25 µM throughout. Also, the TGI in the experiment with OVCAR-8 ovarian and in the experiment on SW-620 colon was above 25 µM throughout.

As for `CCOC(=O)C1=C(Nc2cccc3ccccc23)OCC1=O`, the TGI in the experiment on DMS 273 small cell lung, with HCC-2998 colon, in the experiment with KM20L2 colon, in the experiment with M14 melanoma, with MOLT-4 leukemia and with NCI-H522 lung was above 100 µM each time. Besides, the TGI with OVCAR-8 ovarian and in the experiment with SW-620 colon was above 100 µM in each case.
